Data from patent US20120142771A1, “BIPHENYLACETAMIDE DERIVATIVE” (Dainippon Sumitomo Pharma Co., Ltd., priority 2008, published 2012).

Assays:
[1] = test system: subcutaneously pentetrazol-injected model (scPTZ); test: Subcutaneously pentetrazol-injected model (scPTZ) test; format: in vivo, mice; settings: pentetrazol 85 mg/kg s.c. after 1 hour; for responders at 100 mg/kg / responders at 50 mg/kg: Mus musculus, po, 1 h, Slc: ddY male mice, 3 per group, observed 30 minutes for clonic convulsion, read-out: scPTZ (positive number/tested number) (converted); for responders at 100 mg/kg: 100 mg/kg oral; for responders at 50 mg/kg: 50 mg/kg oral
Description: In order to evaluate the antiepileptic activity of each drug, maximum electroshock seizure (MES) model, subcutaneously pentetrazol-injected model (scPTZ), and amygdala kindling model in rats were used because they show a good clinical prediction. […] Test with Subcutaneously Pentetrazol-Injected Model (scPTZ) Similar to Test 1, Test 2 evaluates the anticonvulsant action of medicaments. However, unlike Test 1, animal model used herein represents the clinical phenotypes of generalized absence seizure and myoclonic seizure. Test compounds (50 or 100 mg/kg) were orally administered to Slc: ddY male mice (3 mice in each group, body weight 20-30 g). After an hour, pentetrazol (85 mg/kg) was subcutaneously administered. […] To the control mice, 0.5% tragacanth solution or 0.5% methylcellulose solution was administered.

[2] = test system: maximum electroshock seizure (MES) model; test: Maximum electroshock seizure (MES) model test; format: in vivo, mice; settings: for responders at 100 mg/kg / responders at 50 mg/kg: Mus musculus, po, 1 h, Slc: ddY male mice, 3 per group, electrical stimulation 1 hour after administration, inhibition of hind limb extension, read-out: MES (positive number/tested number) (converted); for responders at 100 mg/kg: 100 mg/kg oral; for responders at 50 mg/kg: 50 mg/kg oral
Description: In order to evaluate the antiepileptic activity of each drug, maximum electroshock seizure (MES) model, subcutaneously pentetrazol-injected model (scPTZ), and amygdala kindling model in rats were used because they show a good clinical prediction.
Test 1: Test with Maximum Electroshock Seizure (MES) Model
Test 1 evaluates the anticonvulsant action of medicaments. Animal model used herein represents the clinical phenotypes of generalized tonic seizure and secondarily generalized tonic-clonic seizure. Test compounds (50 or 100 mg/kg) were orally administered to Slc: ddY male mice (3 mice in each group, body weight 20-30 g). After an hour of administration, their corneas were electrically stimulated (60 Hz, 25 mA, 0.2 second) to induce tonic convulsion (tonic extensor in their hind limbs). […] To the control mice, 0.5% tragacanth solution or 0.5% methylcellulose solution was administered.

| SMILES | responders at 100 mg/kg [1] [%] | responders at 100 mg/kg [2] [%] | responders at 50 mg/kg [2] [%] | responders at 50 mg/kg [1] [%] | anticonvulsant action in subcutaneously pentetrazol-injected model (scPTZ) test ([1]; mice, oral 50 or 100 mg/kg) | anticonvulsant action in maximum electroshock seizure (MES) model test ([2]; mice, oral 50 or 100 mg/kg, 1 hour after administration) |
| --- | --- | --- | --- | --- | --- | --- |
| CNC(=O)Cc1ccccc1-c1ccccc1Cl [Example 17] | 33.3 | 0 |  |  |  |  |
| CCNC(=O)Cc1ccccc1-c1ccccc1Cl [Example 18] | 33.3 | 100 | 0 |  |  |  |
| NC(=O)Cc1ccccc1-c1cccc(Cl)c1Cl [Example 19] | 0 | 66.7 | 33.3 |  |  |  |
| NC(=O)Cc1ccccc1-c1cccc(F)c1F [Example 20, 2-(2′,3′-difluorobiphenyl-2-yl)acetamide] | 66.7 | 100 | 66.7 | 66.7 | anticonvulsant action was observed | anticonvulsant action was observed |
| NC(=O)Cc1ccccc1-c1ccc(F)c(F)c1 [Example 21, 2-(3′,4′-difluorobiphenyl-2-yl)acetamide] | 100 | 100 | 33.3 | 0 |  |  |
| NC(=O)Cc1ccccc1-c1ccc(F)cc1 [Example 22, 2-(4′-fluorobiphenyl-2-yl)acetamide] | 33.3 | 100 | 66.7 |  |  |  |
| CNC(=O)Cc1ccccc1-c1ccc(F)cc1 [Example 23, 2-(4′-fluorobiphenyl-2-yl)-N-methylacetamide] | 33.3 | 100 | 100 |  |  |  |
| CN(C)C(=O)Cc1ccccc1-c1ccc(F)cc1 [Example 24] | 0 | 100 | 33.3 |  |  |  |
| CNC(=O)Cc1ccccc1-c1cccc(F)c1 [Example 26, 2-(3′-fluorobiphenyl-2-yl)-N-methylacetamide] | 0 | 100 | 100 |  |  |  |
| CCNC(=O)Cc1ccccc1-c1cccc(F)c1 [Example 27] | 33.3 | 100 | 0 |  |  |  |
| CNC(=O)Cc1ccccc1-c1ccccc1F [Example 28, 2-(2′-fluorobiphenyl-2-yl)-N-methylacetamide] | 66.7 | 100 | 0 | 0 |  |  |
| CCNC(=O)Cc1ccccc1-c1ccccc1F [Example 29] | 33.3 | 66.7 | 0 |  |  |  |
| CN(C)C(=O)Cc1ccccc1-c1ccccc1F [Example 30, 2-(2′-fluorobiphenyl-2-yl)-N,N-dimethylacetamide] | 66.7 | 100 | 0 | 33.3 |  |  |
| CNC(=O)Cc1ccccc1-c1cccc(C)c1 [Example 31, N-methyl-2-(3′-methylbiphenyl-2-yl)-acetamide] | 66.7 | 0 |  | 33.3 |  |  |
| NC(=O)Cc1ccc(C(F)(F)F)cc1-c1ccccc1 [Example 32] | 0 | 100 | 33.3 |  |  |  |
| CNC(=O)Cc1ccc(C(F)(F)F)cc1-c1ccccc1 [Example 33] | 33.3 | 66.7 | 33.3 |  |  |  |
| NC(=O)Cc1cc(OC(F)(F)F)ccc1-c1ccccc1 [Example 34] | 66.7 | 0 |  | 33.3 |  |  |
| CSc1cccc(-c2ccccc2CC(N)=O)c1 [Example 94] | 33.3 |  |  |  |  |  |
